Earlier results, collected in patent publication US12138350B2, “Method of producing a extruded composition” (Cubic Pharmaceuticals Ltd., priority 2015, dated 2024).

Details: Ramukutty and Ramachandran 2014

In the case of `CC(C)Cc1ccc(C(C)C(=O)O)cc1` (racemic) [Ibuprofen, (RS)-2-(4-(2-methylpropyl)phenyl)propanoic acid], the “Temperature up to which stable” value is listed as “about 152 °C”.
